The test has as its system BDF1 spleen cells. Nature of the test: CTL induction, PHA-P-mediated cytotoxicity assay (51Cr-labelled P815 targets), BDF1 spleen cells. It is filed as cell-based, mice. The note with it: 5 x 10³ BDF1 spleen cells. How it is done: Cultures and Assays: The culture medium used was Iscove's Modified Dulbecco's medium supplemented with 10% fetal bovine serum (Bocknek, Rexdale, Ontario), 5 x 10⁻⁵M 2-mercaptoethanol, 50 U/ml of Penicillin and 50 µg/ml streptomycin. All cultures were incubated at 37°C in 5% CO₂ in humid air.
For CTL assays, cultures were set up by incubating the indicated number of spleen cells, lymph node cells or thymocytes with the appropriate lymphokine in conical bottomed microtiter plates (Flow Laboratories, #76-023-05) as previously described by Teh et al, 1983, supra. Five days later the cultures were assessed for cytotoxic activity in phytohemaglutinin (PHA-P)-mediated cytotoxicity assay as described by Bevan and Cohn, J. Immunol 1975 114:559. This assay detects CTL of all specificities. A total of 3 x 10³ ⁵¹Cr-labelled P815 (H-2^d) mastocytoma target cells (available from ATCC®) and 10 µg/ml of PHA-P were added to each well. Spontaneous release during the 3.5 hr assay period was about 10% of the maximum releasable counts.

For the compound `CCCCCCCCCCCCCC(=O)O[C@@H]1[C@@H](C)[C@@]2(O)[C@@H](C=C(CO)C[C@]3(O)C(=O)C(C)=C[C@@H]23)[C@@H]2C(C)(C)[C@]12OC(C)=O` [PMA, phorbol-12-myristate-13-acetate], the “% specific lysis (M SE)” value is recorded as 3.5 ± 1.5% (PMA 0.03 ng/ml with rIL-2 20 U/ml); -2.2 ± 1.4% (PMA 0.1 ng/ml alone); 15.7 ± 5.1% (PMA 0.1 ng/ml with rIL-2 20 U/ml); -3.2 ± 1.7% (PMA 0.3 ng/ml alone); 14.8 ± 3.3% (PMA 0.3 ng/ml with rIL-2 20 U/ml); -2.5 ± 0.9% (PMA 1.0 ng/ml alone). Besides, the “% specific lysis (M SE)” value is 2.8 ± 1.3% (PMA 1.0 ng/ml with rIL-2 20 U/ml); -1.0 ± 1.8% (PMA 3.0 ng/ml alone); 4.3 ± 1.4% (PMA 3.0 ng/ml with rIL-2 20 U/ml); -0.9 ± 1.6% (PMA 10.0 ng/ml alone); -0.4 ± 0.9% (PMA 10.0 ng/ml with rIL-2 20 U/ml).

Source of the values: patent publication EP0303483A2, “Novel lymphokine and compositions thereof” (THE UNIVERSITY OF BRITISH COLUMBIA, priority 1987, dated 1989).
